The source of these data is patent US20160046579A1, “THERAPEUTIC COMPOUNDS AND COMPOSITIONS” (AGIOS PHARMACEUTICALS, INC., priority 2013, published 2016).

The target of experiment [1] is PKR R510Q (Homo sapiens, UniProt P30613, R510Q). As to the kind of experiment: PKR Mutant Assay, dose response (AC50), PKR R510Q. Format: biochemical. Particulars: PKR R510Q mutant enzyme. As to the method: (§1) • PKR or PKR mutant enzyme solution was diluted in assay buffer. • 2 μL of test compound was added into wells first, and then 180 μL reaction mix was added. • Reactions mixture with test compound was assembled except for ADP, and plates were stored for 60 minutes at room temperature. • 20 uL ADP was added to start reaction at room temperature and reaction progress was measured as changes in absorbance at 340 nm wavelength at room temperature.
Sequence of PKR R510Q (P30613 whole entry R510Q): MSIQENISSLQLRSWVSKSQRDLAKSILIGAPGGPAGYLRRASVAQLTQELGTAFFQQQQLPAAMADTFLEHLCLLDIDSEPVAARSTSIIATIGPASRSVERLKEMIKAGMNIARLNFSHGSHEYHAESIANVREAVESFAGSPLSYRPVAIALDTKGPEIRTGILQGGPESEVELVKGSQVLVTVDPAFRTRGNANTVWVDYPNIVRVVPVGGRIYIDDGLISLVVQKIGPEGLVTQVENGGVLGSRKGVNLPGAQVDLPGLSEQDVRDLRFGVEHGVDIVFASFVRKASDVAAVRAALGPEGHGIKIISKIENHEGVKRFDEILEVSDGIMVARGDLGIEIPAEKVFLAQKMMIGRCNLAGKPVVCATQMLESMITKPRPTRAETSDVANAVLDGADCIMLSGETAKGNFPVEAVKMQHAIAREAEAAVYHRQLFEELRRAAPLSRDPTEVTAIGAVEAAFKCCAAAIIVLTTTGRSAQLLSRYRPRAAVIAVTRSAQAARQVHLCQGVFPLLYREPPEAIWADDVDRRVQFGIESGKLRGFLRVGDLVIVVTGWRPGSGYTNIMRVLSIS
(§2) Test Compound Preparation: • Test compound stock was made at 100× concentration in 100% DMSO (10 mM) • 1 to 3 dilutions were made for 11 points (i.e. 50 μl of first concentration added to 100 μl 100% DMSO to yield 3.33 mM, 50 μl of this added to 100 μl DMSO to yield 1.11 mM, and so forth) • 1 to 100 dilution into assay (2 μl in 200 μl) yielded starting concentration of 100 μM, decreasing 3 fold for 11 points.

Experiment [2] deals with T1, wt PKR (Homo sapiens, UniProt P30613). As to the kind of experiment: PKR Mutant Assay, dose response (AC50), wild type PKR enzyme. The class given is biochemical. Particulars: wild type PKR enzyme. As to the method: as §1, §2
T1 sequence (P30613 whole entry): as the sequence (P30613 whole entry R510Q) above, with Q510R counted along it
The target in experiment [3] is PKR R532W (Homo sapiens, UniProt P30613, R532W). As to the kind of experiment: PKR Mutant Assay, dose response (AC50), PKR R532W. Particulars: PKR R532W mutant enzyme. The class given is biochemical. As to the method:
as §1, §2

Experiment [4] addresses T1, wt PKR. The experiment is described as follows: wt PKR cell based assay.

Sequence of PKR R532W (P30613 whole entry R532W): as the sequence (P30613 whole entry R510Q) above, with Q510R, R532W counted along it

Consider `Cc1cc(C2(O)CCN(C(=O)c3ccc(NS(=O)(=O)c4cccc5nccnc45)cc3)CC2)sn1` [Compound 518, N-(4-(4-hydroxy-4-(3-methylisothiazol-5-yl)piperidine-1-carbonyl)phenyl)quinoxaline-5-sulfonamide], for which the AC50 is 101 to 1000 nM in experiment [1], less than 100 nM in experiment [2], less than 100 nM in experiment [3] and 101 to 1000 nM in experiment [4].

On to `O=C(c1ccc(NS(=O)(=O)c2cccc3scnc23)cc1)N1CCC(O)(c2scnc2Cl)CC1` [Compound 480, N-(4-(4-(4-chlorothiazol-5-yl)-4-hydroxypiperidine-1-carbonyl)phenyl)benzo[d]thiazole-4-sulfonamide], for which the half-maximal activity concentration (AC50) in experiment [1] is 101 to 1000 nM; in experiment [2], less than 100 nM; in experiment [3] it was less than 100 nM; in experiment [4] it was 101 to 1000 nM.

With `CC(C)CC1(OC(=O)OCOP(=O)(O)O)CCN(C(=O)c2ccc(NS(=O)(=O)c3cccc4scnc34)cc2)CC1` [Compound 526], the AC50 in experiment [1] was 101 to 1000 nM; in experiment [2] it was 101 to 1000 nM; in experiment [3], 101 to 1000 nM; in experiment [4], less than 100 nM.

As for `CC(F)(F)CCC1(O)CCN(C(=O)c2ccc(NS(=O)(=O)c3cccc4nc(N)cnc34)cc2)CC1` [Compound 486, 2-amino-N-(4-(4-(3,3-difluorobutyl)-4-hydroxypiperidine-1-carbonyl)phenyl)quinoxaline-5-sulfonamide], the AC50 in experiment [1] was 101 to 1000 nM; in experiment [2] it was less than 100 nM; in experiment [3], less than 100 nM; in experiment [4], less than 100 nM.

`CC(F)(F)CCC1(O)CCN(C(=O)c2ccc(NS(=O)(=O)c3cccc4scnc34)cc2OC(F)F)CC1` [Compound 473, N-(4-(4-(3,3-difluorobutyl)-4-hydroxypiperidine-1-carbonyl)-3-(difluoromethoxy)phenyl)benzo[d]thiazole-4-sulfonamide]: the AC50 in experiment [1] was 101 to 1000 nM; in experiment [2] it was less than 100 nM; in experiment [3] it was less than 100 nM; in experiment [4] it was 101 to 1000 nM.

Regarding `Cc1nscc1CC1(O)CCN(C(=O)c2ccc(NS(=O)(=O)c3cccc4nccnc34)cc2)CC1` [Compound 497, N-(4-(4-hydroxy-4-((3-methylisothiazol-4-yl)methyl)piperidine-1-carbonyl)phenyl)quinoxaline-5-sulfonamide], the AC50 in experiment [1], in experiment [2], in experiment [3] and in experiment [4] was less than 100 nM each time.

In the case of `O=C(c1ccc(NS(=O)(=O)c2cccc3nccnc23)cc1)N1CCC(O)(Cc2cc[nH]n2)CC1` [Compound 500, N-(4-(4-((1H-pyrazol-3-yl)methyl)-4-hydroxypiperidine-1-carbonyl)phenyl)quinoxaline-5-sulfonamide], the AC50 was in the range of 1010 to 10000 nM in experiment [1], 101 to 1000 nM in experiment [2], 101 to 1000 nM in experiment [3] and 101 to 1000 nM in experiment [4].

With `Cc1cc(C2(O)CCN(C(=O)c3ccc(NS(=O)(=O)c4cccc5scnc45)cc3)CC2)sn1` [Compound 479], the AC50 is 101 to 1000 nM in experiment [1], less than 100 nM in experiment [2], less than 100 nM in experiment [3] and 101 to 1000 nM in experiment [4].

Regarding `Cc1nscc1CC1(O)CCN(C(=O)c2ccc(NS(=O)(=O)c3cccc4ncsc34)cc2)CC1` [Compound 519, N-(4-(4-hydroxy-4-((3-methylisothiazol-4-yl)methyl)piperidine-1-carbonyl)phenyl)benzo[d]thiazole-7-sulfonamide], the AC50 in experiment [1], in experiment [2], in experiment [3] and in experiment [4] was less than 100 nM throughout.

As for `CC(C)CC1(OC(=O)OCOP(=O)(O)O)CCN(C(=O)c2ccc(NS(=O)(=O)c3cccc4nccnc34)cc2)CC1` [Compound 527, 4-isobutyl-1-(4-(quinoxaline-5-sulfonamido)benzoyl)piperidin-4-yl phosphonooxymethyl carbonate], the AC50 in experiment [1] was 101 to 1000 nM; in experiment [2], 101 to 1000 nM; in experiment [3], 101 to 1000 nM; in experiment [4], less than 100 nM.

Take `Cc1n[nH]c(C)c1CC1(O)CCN(C(=O)c2ccc(NS(=O)(=O)c3cccc4scnc34)cc2)CC1` [Compound 514]: the AC50 in experiment [1] is 101 to 1000 nM; in experiment [2] it was less than 100 nM; in experiment [3] it was less than 100 nM; in experiment [4] it was 101 to 1000 nM.

As to `O=C(c1ccc(NS(=O)(=O)c2cccc3nccnc23)cc1)N1CCC(O)(Cc2cn[nH]c2)CC1` [Compound 499, N-(4-(4-((1H-pyrazol-4-yl)methyl)-4-hydroxypiperidine-1-carbonyl)phenyl)quinoxaline-5-sulfonamide], the AC50 was 101 to 1000 nM in experiment [1], less than 100 nM in experiment [2], less than 100 nM in experiment [3] and 101 to 1000 nM in experiment [4].

Turning to `CC(C)CC1(O)CCN(C(=O)c2ccc(NS(=O)(=O)c3cncc4cccnc34)cc2)CC1` [Compound 513, N-(4-(4-hydroxy-4-isobutylpiperidine-1-carbonyl)phenyl)-1,6-naphthyridine-8-sulfonamide], the AC50 in experiment [1] was 101 to 1000 nM; in experiment [2], less than 100 nM; in experiment [3], less than 100 nM; in experiment [4], less than 100 nM.

With `CC(F)(F)CCC1(O)CCN(C(=O)c2ccc(NS(=O)(=O)c3cccc4nccnc34)cc2F)CC1` [Compound 478, N-(4-(4-(3,3-difluorobutyl)-4-hydroxypiperidine-1-carbonyl)-3-fluorophenyl)quinoxaline-5-sulfonamide], the concentration at half-maximal activity (AC50) in experiment [1], in experiment [2], in experiment [3] and in experiment [4] was 101 to 1000 nM throughout.

With `CC(F)(F)CCC1(O)CCN(C(=O)c2ccc(NS(=O)(=O)c3cccc4nccnc34)cc2C#N)CC1` [Compound 492], the AC50 in experiment [1], in experiment [2], in experiment [3] and in experiment [4] was 101 to 1000 nM each time.

As to `Cc1noc(C)c1CC1(O)CCN(C(=O)c2ccc(NS(=O)(=O)c3cccc4nccnc34)cc2)CC1` [Compound 521, N-(4-(4-((3,5-dimethylisoxazol-4-yl)methyl)-4-hydroxypiperidine-1-carbonyl)phenyl)quinoxaline-5-sulfonamide], the AC50 is 101 to 1000 nM in experiment [1], less than 100 nM in experiment [2], less than 100 nM in experiment [3] and less than 100 nM in experiment [4].

Regarding `Cc1cc(CC2(O)CCN(C(=O)c3ccc(NS(=O)(=O)c4cccc5nccnc45)cc3)CC2)sn1` [Compound 511, N-(4-(4-hydroxy-4-((3-methylisothiazol-5-yl)methyl)piperidine-1-carbonyl)phenyl)quinoxaline-5-sulfonamide], the AC50 is 101 to 1000 nM in experiment [1], less than 100 nM in experiment [2], less than 100 nM in experiment [3] and 101 to 1000 nM in experiment [4].

For the compound `Cc1ccccc1CC1(O)CCN(C(=O)c2ccc(NS(=O)(=O)c3cccc4scnc34)cc2)CC1` [Compound 125], the AC50 in experiment [1], in experiment [2], in experiment [3] and in experiment [4] was less than 100 nM each time.

Consider `Nc1cnc2c(S(=O)(=O)Nc3ccc(C(=O)N4CCC(O)(CCCC(F)(F)F)CC4)cc3)cccc2n1` [Compound 482, 2-amino-N-(4-(4-hydroxy-4-(4,4,4-trifluorobutyl)piperidine-1-carbonyl)phenyl)quinoxaline-5-sulfonamide], for which the AC50 in experiment [1], in experiment [2], in experiment [3] and in experiment [4] was less than 100 nM in each case.

As for `CC(F)(F)CCC1(O)CCN(C(=O)c2ccc(NS(=O)(=O)c3cc(F)cc4sc(N)nc34)cc2F)CC1` [Compound 483, 2-amino-N-(4-(4-(3,3-difluorobutyl)-4-hydroxypiperidine-1-carbonyl)-3-fluorophenyl)-6-fluorobenzo[d]thiazole-4-sulfonamide], the AC50 is 101 to 1000 nM in experiment [1], less than 100 nM in experiment [2], 101 to 1000 nM in experiment [3] and 101 to 1000 nM in experiment [4].

As to `Cc1n[nH]c(C)c1CC1(O)CCN(C(=O)c2ccc(NS(=O)(=O)c3cccc4nccnc34)cc2)CC1` [Compound 512, N-(4-(4-((3,5-dimethyl-1H-pyrazol-4-yl)methyl)-4-hydroxypiperidine-1-carbonyl)phenyl)quinoxaline-5-sulfonamide], the AC50 in experiment [1] was 101 to 1000 nM; in experiment [2] it was less than 100 nM; in experiment [3], less than 100 nM; in experiment [4], 101 to 1000 nM.

In the case of `O=C(c1ccc(NS(=O)(=O)c2cccc3scnc23)cc1)N1CCC(O)(c2sncc2Cl)CC1` [Compound 522, N-(4-(4-(4-chloroisothiazol-5-yl)-4-hydroxypiperidine-1-carbonyl)phenyl)benzo[d]thiazole-4-sulfonamide], the AC50 is 101 to 1000 nM in experiment [1], less than 100 nM in experiment [2], less than 100 nM in experiment [3] and less than 100 nM in experiment [4].

Turning to `O=C(c1ccc(NS(=O)(=O)c2cccc3nccnc23)cc1)N1CCC(O)(Cc2c(O)n[nH]c2C(F)(F)F)CC1` [Compound 523], the AC50 in experiment [1] lay within 1010 to 10000 nM; in experiment [2], 101 to 1000 nM; in experiment [3], 101 to 1000 nM; in experiment [4], 101 to 1000 nM.
